{
  "source": "patent US20050004163A1",
  "about": "“3-(diarylmethylene)-8-azabicyclo[3.2.1]octane derivatives” (priority 2000, published 2005)",
  "note": "pKi: −log10 of the molar value.",
  "data": [
    {"target": "T1, μ-opioid receptor (Rattus norvegicus, UniProt P33535)", "T1 construct": "the forebrains are homogenized in Tris buffer in a Teflon®-glass homogenizer; from tissue; host or cells: forebrain of male Wistar rats (particulate membrane preparation)", "T1 sequence (P33535 whole entry)": "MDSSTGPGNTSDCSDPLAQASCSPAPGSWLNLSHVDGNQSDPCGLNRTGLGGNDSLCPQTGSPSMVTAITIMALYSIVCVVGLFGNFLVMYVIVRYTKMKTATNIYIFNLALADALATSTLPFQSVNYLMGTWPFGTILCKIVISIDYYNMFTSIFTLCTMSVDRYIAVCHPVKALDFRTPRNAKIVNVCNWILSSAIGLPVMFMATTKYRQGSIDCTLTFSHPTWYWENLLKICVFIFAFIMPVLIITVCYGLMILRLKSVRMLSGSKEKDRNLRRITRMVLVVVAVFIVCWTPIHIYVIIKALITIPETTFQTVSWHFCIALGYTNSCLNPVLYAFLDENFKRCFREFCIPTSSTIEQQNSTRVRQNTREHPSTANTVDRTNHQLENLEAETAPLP", "assay": "Rat brain μ-opioid receptor binding assay ([3H]DAMGO)", "settings": "10 nM solutions of the compounds, read-out: MOR binding Ki", "procedure": "(§1) Rat Brain μ-Opioid Receptor Binding Assay\n(§2) Male, Wistar rats (150-250 g, VAF, Charles River, Kingston, N.Y.) are killed by cervical dislocation and their brains removed and placed immediately in ice cold Tris HCl buffer (50 mM, pH 7.4). The forebrains are separated from the remainder of the brain by a coronal transection, beginning dorsally at the colliculi and passing ventrally through the midbrain-pontine junction. After dissection, the forebrains are homogenized in Tris buffer in a Teflon®-glass homogenizer. The homogenate is diluted to a concentration of 1 g of forebrain tissue per 100 mL Tris buffer and centrifuged at 39,000×G for 10 min. The pellet is resuspended in the same volume of Tris buffer with several brief pulses from a Polytron homogenizer. This particulate preparation is used for the μ-opioid binding assays. […] The tubes and filters are rinsed three times with 4 mL of 10 mM HEPES (pH 7.4) and the radioactivity associated with the filter circles determined using Formula 989 scintillation fluid (New England Nuclear, Boston, Mass.) in a scintillation counter.\n(§3) The data are used to calculate either the % inhibition compared to control binding (when only a single concentration of test compound is evaluated) or a Ki value (when a range of concentrations is tested).\n(§4) % Inhibition is calculated as follows: [formula]\n(§5) Ki value is calculated using the LIGAND (Munson, P. J. and Rodbard, D., Anal. Biochem. 107: 220-239, 1980) data analysis program.", "values": [
      {"smiles": "CCNC(=O)c1ccc(C=C2CC3CCC(C2)N3CCc2ccccc2)cc1", "note": "[Cpd 62]", "pKi": 8.07},
      {"smiles": "CCNC(=O)c1ccc(C(=C2CC3CCC(C2)N3Cc2ccsc2)c2cnc3ccccc3c2)cc1", "note": "[Cpd 15]", "pKi": 6.90},
      {"smiles": "CCNC(=O)c1ccc(C(=C2CC3CCC(C2)N3Cc2ccsc2)c2ccc(CO)cc2)cc1", "note": "(single isomer, unassigned) [Cpd 206]", "pKi": 7.10},
      {"smiles": "CCNC(=O)c1ccc(C=C2CC3CCC(C2)N3Cc2ccoc2)cc1", "note": "[Cpd 36]", "pKi": 6.96},
      {"smiles": "CCNC(=O)c1ccc(C(=C2CC3CCC(C2)N3Cc2ccc(C(=O)O)o2)c2cccc(C(=O)O)c2)cc1", "note": "[Cpd 87]", "pKi": 6.09},
      {"smiles": "CCNC(=O)c1ccc(C(=C2CC3CCC(C2)N3C(=O)OCC)c2ccc(O)c(OC)c2)cc1", "note": "[Cpd 172, 3-[(4-Ethylcarbamoyl-phenyl)-(4-hydroxy-3-methoxy-phenyl)-methylene]-8-aza-bicyclo[3.2.1]octane-8-carboxylic acid ethyl ester]", "pKi": 6.15},
      {"smiles": "CCNC(=O)c1ccc(C=C2CC3CCC(C2)N3Cc2cccs2)cc1", "note": "[Cpd 61]", "pKi": 7.15},
      {"smiles": "CCNC(=O)c1ccc(C(Br)=C2CC3CCC(C2)N3Cc2ccsc2)cc1", "note": "[Cpd 23]", "pKi": 8.21},
      {"smiles": "CCNC(=O)c1ccc(C=C2CC3CCC(C2)N3Cc2ccc3ccccc3n2)cc1", "note": "[Cpd 35]", "pKi": 6.27},
      {"smiles": "CCNC(=O)c1ccc(C(=C2CC3CCC(C2)N3Cc2ccco2)c2cnc3ccccc3c2)cc1", "note": "[Cpd 16]", "pKi": 7.09}
    ]},
    {"target": "T1, μ-opioid receptor", "assay": "Rat brain μ-opioid receptor binding assay ([3H]DAMGO)", "settings": "MOR binding Ki", "procedure": "as §1, §2, §3, §4, §5", "values": [
      {"smiles": "CCNC(=O)c1ccc(/C(=C2\\C[C@H]3CC[C@@H](C2)N3Cc2ccccn2)c2ccc(C(=O)N(C)C)cc2)cc1", "note": "[Cpd 113, N-Ethyl-4-[N′,N′-dimethylbenzamide-(8-pyridin-2-ylmethyl-8-aza-bicyclo[3.2.1]oct-3-ylidene)-methyl]-benzamide]", "pKi": 7.44},
      {"smiles": "CCNC(=O)c1ccc(C(=C2CC3CCC(C2)N3Cc2nccs2)c2cccc(-c3nnn[nH]3)c2)cc1", "note": "[Cpd 167]", "pKi": 8.27},
      {"smiles": "CCNC(=O)c1ccc(C(=C2CC3CCC(C2)N3Cc2ccsc2)c2ccc(CO)cc2)cc1", "note": "[Cpd 205]", "pKi": 7.76},
      {"smiles": "CCNC(=O)c1ccc(C(Br)=C2C[C@H]3CC[C@@H](C2)N3)cc1", "note": "(single isomer, unassigned) [Cpd 92]", "pKi": 6.94},
      {"smiles": "CCNC(=O)c1ccc(C(=C2CC3CCC(C2)N3C(=O)c2cccs2)c2cccnc2)cc1", "note": "[Cpd 208, N-Ethyl-4-{pyridin-3-yl-[8-(thiophene-2-carbonyl)-8-aza-bicyclo[3.2.1]oct-3-ylidene]-methyl}-benzamide]", "pKi": 7.21},
      {"smiles": "CCNC(=O)c1ccc(C=C2CC3CCC(C2)N3Cc2nccs2)cc1", "note": "[Cpd 133]", "pKi": 6.24},
      {"smiles": "CCNC(=O)c1ccc(C(=C2CC3CCC(C2)N3C(=O)Cc2ccccc2)c2cccnc2)cc1", "note": "[Cpd 200, N-Ethyl-4-[(8-phenylacetyl-8-aza-bicyclo[3.2.1]oct-3-ylidene)-pyridin-3-yl-methyl]-benzamide]", "pKi": 7.88},
      {"smiles": "CCNC(=O)c1ccc(C(=C2CC3CCC(C2)N3Cc2ccc3ccccc3n2)c2cccnc2)cc1", "note": "[Cpd 71]", "pKi": 7.83},
      {"smiles": "CCNC(=O)c1ccc(C=C2CC3CCC(C2)N3Cc2ccco2)cc1", "note": "[Cpd 34]", "pKi": 5.85},
      {"smiles": "CCNC(=O)c1ccc(C(=C2CC3CCC(C2)N3CC=C(C)C)c2cccc(C(=O)O)c2)cc1", "note": "[Cpd 47, 3{(4-Ethylcarbamoyl-phenyl)-[8-(3-methyl-but-2-enyl)-8-aza-bicyclo[3.2.1]oct-3-ylidene]-methyl}-benzoic acid]", "pKi": 6.90},
      {"smiles": "CCNC(=O)c1ccc(C(=C2CC3CCC(C2)N3Cc2nccs2)c2nnn[nH]2)cc1", "note": "[Cpd 150]", "pKi": 7.13},
      {"smiles": "CCNC(=O)c1ccc(C(=C2CC3CCC(C2)N3Cc2cccc(C(=O)O)c2)c2ccccc2)cc1", "note": "[Cpd 93]", "pKi": 6.55},
      {"smiles": "CCNC(=O)c1ccc(C(Br)=C2CC3CCC(C2)N3Cc2cccs2)cc1", "note": "[Cpd 40]", "pKi": 8.05},
      {"smiles": "CCNC(=O)c1ccc(C(=C2CC3CCC(C2)N3Cc2ccccn2)c2cc(C(=O)O)cc([N+](=O)[O-])c2)cc1", "note": "[Cpd 154]", "pKi": 7.04},
      {"smiles": "CNC(=O)c1ccc(C=C2CC3CCC(C2)N3CC2CC2)cc1", "note": "[Cpd 105]", "pKi": 5.25},
      {"smiles": "CCN(CC)C(=O)c1ccc(C(Br)=C2CC3CCC(C2)N3)cc1", "note": "[Cpd 49, 4-[(8-Aza-bicyclo[3.2.1]oct-3-ylidene)-bromo-methyl]-N,N-diethylbenzamide]", "pKi": 4.00},
      {"smiles": "CCNC(=O)c1ccc(C(=C2CC3CCC(C2)N3CC=C(C)C)c2cccc(CN)c2)cc1", "note": "[Cpd 156]", "pKi": 5.26},
      {"smiles": "CCNC(=O)c1ccc(C(=C2CC3CCC(C2)N3Cc2ccccn2)c2cccc(C(=O)O)c2)cc1", "note": "[Cpd 82]", "pKi": 6.43},
      {"smiles": "CCNC(=O)c1ccc(C(=C2CC3CCC(C2)N3Cc2ccco2)c2nnn[nH]2)cc1", "note": "(single isomer, unassigned) [Cpd 203]", "pKi": 5.26},
      {"smiles": "CCNC(=O)c1ccc(C(=C2CC3CCC(C2)N3Cc2nccs2)c2ccc(CC(N)C(=O)O)cc2)cc1", "note": "(centres unmarked) [Cpd 131]", "pKi": 6.82},
      {"smiles": "CCNC(=O)c1ccc(C(=C2CC3CCC(C2)N3CCc2ccccc2)c2cc(N)cc(C(=O)O)c2)cc1", "note": "[Cpd 116]", "pKi": 5.82},
      {"smiles": "CCNC(=O)c1ccc(C(=C2CC3CCC(C2)N3Cc2csc([N+](=O)[O-])c2)c2cccnc2)cc1", "note": "[Cpd 74]", "pKi": 7.43},
      {"smiles": "CCNC(=O)c1ccc(C(=C2CC3CCC(C2)N3Cc2nccs2)c2ccc(CO)cc2)cc1", "note": "[Cpd 195]", "pKi": 7.19},
      {"smiles": "CCNC(=O)c1ccc(C(Br)=C2CC3CCC(C2)N3Cc2ccoc2)cc1", "note": "[Cpd 26]", "pKi": 8.73},
      {"smiles": "CCNC(=O)c1ccc(C(=C2CC3CCC(C2)N3Cc2nccs2)c2cccc(CO)c2)cc1", "note": "[Cpd 186]", "pKi": 7.54},
      {"smiles": "CCNC(=O)c1ccc(C(=C2CC3CCC(C2)N3Cc2nccs2)c2ccc([N+](=O)[O-])cc2)cc1", "note": "[Cpd 130]", "pKi": 6.66},
      {"smiles": "CCNC(=O)c1ccc(C(=C2CC3CCC(C2)N3Cc2ccco2)c2nnn[nH]2)cc1", "note": "[Cpd 146]", "pKi": 7.82},
      {"smiles": "CCNC(=O)c1ccc(C(=C2CC3CCC(C2)N3Cc2ccccn2)c2ccc(NS(C)(=O)=O)cc2)cc1", "note": "[Cpd 182]", "pKi": 8.57},
      {"smiles": "CCNC(=O)c1ccc(C(=C2CC3CCC(C2)N3Cc2ccsc2)c2ccc([N+](=O)[O-])cc2)cc1", "note": "[Cpd 128]", "pKi": 8.37},
      {"smiles": "CCNC(=O)c1ccc(C(=C2CC3CCC(C2)N3Cc2ccco2)c2ccc(CC(N)C(=O)O)cc2)cc1", "note": "(centres unmarked) [Cpd 124]", "pKi": 7.02},
      {"smiles": "CCNC(=O)c1ccc(C(=C2CC3CCC(C2)N3Cc2ccccn2)c2cc(N)cc(C(=O)O)c2)cc1", "note": "[Cpd 112]", "pKi": 5.00},
      {"smiles": "CCNC(=O)c1ccc(C(=C2CC3CCC(C2)N3Cc2nccs2)c2cccc(C(=O)O)c2)cc1", "note": "[Cpd 102]", "pKi": 5.88},
      {"smiles": "CCNC(=O)c1ccc(C(=C2CC3CCC(C2)N3Cc2ccoc2)c2cc(N)cc(C(=O)O)c2)cc1", "note": "[Cpd 110]", "pKi": 5.04},
      {"smiles": "CCNC(=O)c1ccc(C(C#N)=C2CC3CCC(C2)N3)cc1", "note": "[Cpd 145]", "pKi": 6.02},
      {"smiles": "CCNC(=O)c1ccc(C(=C2CC3CCC(C2)N3Cc2sccc2C)c2ccc3c(c2)OCO3)cc1", "note": "[Cpd 12]", "pKi": 6.89},
      {"smiles": "CCNC(=O)c1ccc(C(=C2CC3CCC(C2)N3Cc2nccs2)c2cc(C(=O)O)cc([N+](=O)[O-])c2)cc1", "note": "[Cpd 159]", "pKi": 7.87},
      {"smiles": "CCNC(=O)c1ccc(C(=C2CC3CCC(C2)N3Cc2ccc3c(c2)OCO3)c2cnc3ccccc3c2)cc1", "note": "[Cpd 65]", "pKi": 7.37},
      {"smiles": "CCNC(=O)c1ccc(C(C#N)=C2CC3CCC(C2)N3Cc2ccoc2)cc1", "note": "(single isomer, unassigned) [Cpd 210]", "pKi": 8.64},
      {"smiles": "CCNC(=O)c1ccc(C(=C2CC3CCC(C2)N3CC=C(C)C)c2ccc(S(N)(=O)=O)cc2)cc1", "note": "[Cpd 142]", "pKi": 8.40},
      {"smiles": "CCN(CC)C(=O)c1ccc(C(=C2CC3CCC(C2)N3C#N)c2ccccc2)cc1", "note": "[Cpd 197, 4-[(8-cyano-8-aza-bicyclo[3.2.1]oct-3-ylidene)-phenyl-methyl]-N,N-diethylbenzamide]", "pKi": 5.00}
    ]}
  ]
}
